Where no end group is shown, it is not given here.
Key:
Format in all cases: cell-based
[1] = system: alveolar type II epithelial cells (T2 cells); assay: Inhibition by free cell adhesion peptides of T2 cell adhesion to coated cell adhesion proteins FN, Col I, LN, VN; conditions: free peptide 0.25 mg/ml; serum-free, 1 day
Procedure: Commercially available FN, LN and VN, usually used as cell adhesion proteins at cell culture, were coated to wells at the concentrations of 5 μg/ml, 10 μg/ml and 10 μg/ml, respectively. In case of Col I (collagen type I), Col I at the concentration of 100 μg/ml, dissolved in 1 mM HCl, was poured into a well, left stand still for a while, and then the solution was removed and air-drying was conducted, and rinsed with the medium, before use. Next, 6×10^5 cells/ml of alveolar type II epithelial cells (T2 cells) suspended in the serum-free DMEM medium was seeded by 100 μl each on a 96-well to which the extracellular matrix was coated, and cultured in a CO2 incubator at 37° C. for 1 day. After the culture was finished, the cells were fixed with 100 μl of methanol for 5 minutes, and stained for 30 minutes with 50 μl of 0.4% crystal violet. Excessive staining was washed with water, then the number of cells adhered to FN, Col I, LN and VN, which had been coated to the wells, was counted based on the absorbance of cytoplasm (A595).
On the other hand, among amino acid sequences of various LN molecules, the sequences that induce cell adhesion are known to be present. […] Then, the number of cells was counted in accordance with the method described above.

[2] = system: alveolar type II epithelial cells (T2 cells); assay: Inhibition of T2 cell adhesion to immobilized cell adhesion peptide substrates by heparin treatment; conditions: 24-hour culture; for Inhibition of cell adhesion to immobilized peptide by heparin treatment: 100 μg/ml heparin 2 hours
Procedure: 100 μg/ml of heparin solution was poured into a well prepared according to the method in Example 6, wherein the cell adhesion peptides were immobilized, and the incubation was conducted for 2 hours. The heparin solution was removed after heparin bound to the immobilized cell adhesion peptides, and T2 cell suspension was seeded on the well.
It is theoretically shown that after the cell adhesion peptides first bind to heparin and are covered with heparin, the cell adhesion receptors having heparin-like sugar chain (heparan sulfate) present on the cell surface, in other words, syndecan, a protein that belongs to heparan sulfate proteoglycan, cannot bind to the cell adhesion peptides by using the sugar chain part of the heparan sulfate, thereby the cell adhesion is inhibited.

[3] = system: alveolar type II epithelial cells (T2 cells); assay: Inhibition of T2 cell adhesion by free peptide different from the immobilized peptide substrate; conditions: for Inhibition by free peptide of T2 cell adhesion to immobilized AG73: AG73 (etc.) immobilized; for Inhibition by free peptide of T2 cell adhesion to immobilized FIB-1: FIB-1 immobilized; for Inhibition by free peptide of T2 cell adhesion to immobilized AG81.2 and AG73T: AG81.2 and AG73T immobilized
Procedure: Results obtained by adding the free peptides different from the immobilized peptides when T2 cells were cultured on the immobilized peptide prepared according to the method in Example 7, were shown in FIG. 8.
When adding the free peptides that were the same as the immobilized peptides in the culture medium, the both (free and immobilized) peptides compete for syndecan of T2 cells and as a result, the cell adhesion is inhibited (see Example 7). So far, four types of syndecans are genetically known. Whether these syndecans are commonly owned or accommodated by each peptide, overlapping only by some degrees, otherwise mutually exclusive, was examined herein.

[4] = system: alveolar type II epithelial cells (T2 cells); assay: Binding strength (affinity) of immobilized LN peptides to T2 cells relative to immobilized FIB-1 (mixed immobilization, free FIB-1 competition); set-up: key to Binding strength to T2 cells, Comprehensive evaluation: AA: extremely strongly binding/adhering; A: strongly binding/adhering; B: intermediately binding/adhering (as the same degree as FIB-1 peptide); C: more weakly binding/adhering than FIB-1 peptide; conditions: for Binding strength to T2 cells, Comprehensive evaluation: classification relative to FIB-1 peptide; for Binding strength to T2 cells, Ratio to FIB-1: inverse of mixing ratio at transitional midpoint, MMAC-coated well
Procedure: Therefore, the amount of FIB-1 peptide was set at 0.25 mg/ml, and AG73 peptide was mixed therewith, while changing its concentration ratio, from 1/1.250 of FIB-1 in an amount which is 0.20 μg/ml, to ½ of FIB-1 in an amount which is 0.125 mg/ml, and the mixture was immobilized on a well wherein a hydrophobic binding-adsorptive polymer MMAC was coated. The amount of cell adhesion in the case where T2 cells were cultured under a serum-free condition for 1 day on the immobilized peptides is shown in FIG. 9, in comparison with the case where the culture was conducted on the immobilized FIB-1, which was set at 100%.
However, in a case that the ratio of FIB-1:AG73 increased to 1:0.02, because T2 cells already transited to be adherent through the immobilized AG73 peptide, free FIB-1 peptide could no longer inhibit the cell adhesion. […] Likewise, with regard to A3G72 and A4G82 peptides, because the mixing ratio at the transitional midpoint=0.1, their binding strength to T2 cells is 10 times as much as that of FIB-1.
The method used in FIGS. 8 and 9 is extremely effective as a convenient method by which a relative order can be measured concerning to the binding strength (affinity) of cell adhesion peptides and the strength of cell adhesion can be considered quantitatively.
In Table 1, the classification is shown based on the results of the affinity (bonding/adhesion strength) between FIB-1 peptide containing RGD amino acid sequence of FN molecule, a binding site to integrin, and T2 cells: laminin α-chain G-domain peptides are classified into class AA, extremely strong binding/adhesion; class A, strong adhesion; class B, adhesion as the same degree as FIB-1; and class C, binding weaker than the described above.

[5] = system: alveolar type II epithelial cells (T2 cells); assay: Adhesion of T2 cells to immobilized cell adhesion peptide substrates and inhibition by the same free peptide; conditions: for Inhibition degree of cell adhesion, Free peptide: T2 cells on immobilized peptide, same free peptide coexistent at 0.25 mg/ml; for Competitive inhibition of cell adhesion by the same free cell adhesion peptide: immobilized by MMAC or MAST, free peptide 0.25 mg/ml
Procedure: All treatments are assumed to be aseptic treatments. First, in the case of cell adhesion proteins, 10 μg/ml of a hydrophobic binding-adsorptive polymer, such as MMAC and MAST, and in the case of peptides, 50 μg/ml of MMAC and MAST is dissolved in ethanol, the solution is filtered and poured by 50 μl each into a 96-well with no surface treatment for cell culture, leave it stand still for a while, and then MMAC etc., are removed and air-drying is conducted. Next, 10-20 μg/ml of cell adhesion protein or 0.25 mg/ml of peptide is dissolved in 0.1 M triethanolamine buffer, a solution of pH 8.8, and the mixture was poured by 50 μl each into a 96-well previously coated with MMAC etc. The solution is reacted overnight while humidifying in an incubator heated at 37° C. After the reaction finishes, the reaction liquid is absorbed, the remaining reaction solution is rinsed out with the medium, and the immobilized preparation of cell adhesion proteins or peptides is prepared. The preparation, as described in the following Examples, can be used for cell cultures as cell adhesion protein or peptide substrates.
T2 cells suspended in the serum-free DMEM medium at the concentration of 6×10^4 cells/100 μl were seeded in the well prepared according to the manner in Example 6, wherein cell adhesion peptides were immobilized, and cultured in a CO2 incubator at 37° C. for 24 hours. Then, in accordance with the manner in Example 7, the cells were fixed with methanol, stained, and the absorbance was measured. Just before seeding the cells, the free peptides, the same kind as the cell adhesion peptides used for immobilization, were also added to the cell suspension, and the absorbance was measured after the culture in the same manner as described above. As to the case wherein FN was applied as a standard material, the measurement was conducted as well.
FIGS. 4 and 5 show the results obtained with the use of wells prepared by using laminin α-chain G-peptides and FIB-1 peptide as cell adhesion peptides, and as a hydrophobic binding-adsorptive polymer, MMAC was used in FIG. 4, and MAST was used in FIG. 5.

[6] = system: alveolar type II epithelial cells (T2 cells); assay: Inhibition of T2 cell adhesion to immobilized pseudomatrix by treatment with polyclonal antibodies for the peptides
Procedure: Each pseudomatrix prepared in Example 13 to which cell adhesion peptide was bound (MBAC-peptide) was diluted in DMEM medium to the concentration of 1-10 μg/ml, poured into a 96-well by 100 μl each, and left still overnight in a CO2 incubator to be adsorbed and immobilized on the wells. Non-adsorbed MBAC-peptides were removed by rinsing well with DMEM medium. Next, 100 μl of antibodies diluted with serum-free DMEM to the concentration of 4-10 μg/ml was poured into a well, incubated for 2-4 hours to let the antibodies bind to the peptides. Normal IgG was used for control groups. Antibodies were removed after the treatment, T2 cells suspended at the concentration of 6×10^5 cells/ml were seeded by 100 μl each. After 1-day serum-free culture, T2 cells were fixed with 100 μl of methanol for 5 minutes, and stained with 50 μl of 0.4% crystal violet for 30 minutes. Excessive staining was washed with water, and the number of adhering cells was counted based on the absorbance of cytoplasm (A595).

GPLPSYLQFVGI
Inhibition of adhesion of T2 cells to FN, Col I, LN and VN by free peptide [1]: inhibited adhesion of T2 cells | Inhibition degree of cell adhesion, Heparin ([2]; immobilized peptide treated with 100 μg/ml heparin 2 hours): No | Inhibition by free peptide of T2 cell adhesion to immobilized AG73 [3]: inhibited the cell adhesion | Inhibition by free peptide of T2 cell adhesion to immobilized FIB-1 [3]: could inhibit | Binding strength to T2 cells, Comprehensive evaluation [4]: B | Binding strength to T2 cells, Ratio to FIB-1 ([4]; FIB-1 0.25 mg/ml): <1 | Mixing ratio at the transitional midpoint ([4]; peptide:FIB-1 co-immobilized, FIB-1 0.25 mg/ml, loss of inhibition by free FIB-1): about 1

KNRLTIELEVRT
Inhibition of cell adhesion to immobilized peptide by heparin treatment [2]: inhibition of adhesion | Binding strength to T2 cells, Comprehensive evaluation [4]: C | Inhibition degree of cell adhesion, Free peptide [5]: No | Competitive inhibition of cell adhesion by the same free cell adhesion peptide [5]: without competitive inhibition

VKTEYIKRKAFM
Inhibition of cell adhesion to immobilized peptide by heparin treatment [2]: inhibition of adhesion | Inhibition by free peptide of T2 cell adhesion to immobilized AG73 [3]: cannot inhibit it | Inhibition by free peptide of T2 cell adhesion to immobilized AG81.2 and AG73T [3]: could not competitively inhibit their immobilized peptide, or even if they can, only slightly | Inhibition by free peptide of T2 cell adhesion to immobilized FIB-1 [3]: could not inhibit | Binding strength to T2 cells, Comprehensive evaluation [4]: C | Binding strength to T2 cells, Ratio to FIB-1 ([4]; FIB-1 0.25 mg/ml): <1 | Inhibition degree of cell adhesion, Free peptide [5]: No | Competitive inhibition of cell adhesion by the same free cell adhesion peptide [5]: without competitive inhibition

LQQRRSVLRTKI
Inhibition of cell adhesion to immobilized peptide by heparin treatment [2]: inhibition of adhesion | Inhibition by free peptide of T2 cell adhesion to immobilized AG73 [3]: cannot inhibit it | Inhibition by free peptide of T2 cell adhesion to immobilized AG81.2 and AG73T [3]: could not competitively inhibit their immobilized peptide, or even if they can, only slightly | Inhibition by free peptide of T2 cell adhesion to immobilized FIB-1 [3]: could not inhibit | Binding strength to T2 cells, Comprehensive evaluation [4]: C | Inhibition degree of cell adhesion, Free peptide [5]: No | Competitive inhibition of cell adhesion by the same free cell adhesion peptide [5]: without competitive inhibition

TLQLQEGRLHFM
Inhibition of cell adhesion to immobilized peptide by heparin treatment [2]: inhibition of adhesion | Binding strength to T2 cells, Comprehensive evaluation [4]: C | Inhibition degree of cell adhesion, Free peptide [5]: No | Competitive inhibition of cell adhesion by the same free cell adhesion peptide [5]: without competitive inhibition

GEKSQFSIRLKT
Inhibition of cell adhesion to immobilized peptide by heparin treatment [2]: inhibition of adhesion | Binding strength to T2 cells, Comprehensive evaluation [4]: C | Inhibition degree of cell adhesion, Free peptide [5]: No | Competitive inhibition of cell adhesion by the same free cell adhesion peptide [5]: without competitive inhibition

RNRLHLSMLVRP
Inhibition of cell adhesion to immobilized peptide by heparin treatment [2]: inhibition of adhesion | Binding strength to T2 cells, Comprehensive evaluation [4]: C | Competitive inhibition of cell adhesion by the same free cell adhesion peptide [5]: without competitive inhibition

MBAC-AG73T: pseudomatrix: MBAC polymer reacted with AG73T peptide (LQQRRSVLRTKI)
Cell adhesion ability of immobilized pseudomatrix compared with coated FN ([6]; MBAC-peptide 1-10 μg/ml in DMEM): the same level of cell adhesion ability as in the case where FN was coated | Inhibition of cell adhesion by treatment with antibodies for the peptides ([6]; antibodies 4-10 μg/ml, 2-4 hours): specifically inhibited

From patent US8304238B2, “Cell culture medium and immobilized preparation of cell adhesion protein or peptide” (Nat'l Institute for Environmental Studies, priority 2003, dated 2012)
